Melting point data for 87 compounds are collected here from a melting point compilation (Tetko et al.; mined from patent text by program, amines drawn as free bases though some values may be those of a salt).

Where only a bound is given, the exact number is not on record here.

By melting point is commonly meant the temperature of the solid-liquid transition.

`CCOC(=O)C(S)CC(=O)c1ccc(Oc2ccc(Cl)cc2)cc1` (configuration not stated): the melting point lay in the range of 75.5 to 76.5 °C. Consider `C#CCS(=O)(=O)c1cccc([N+](=O)[O-])c1`, for which the melting point was 250 to 255 °C. On to `O=C(C(=O)N(CC(F)(F)F)S(=O)(=O)C(F)(F)F)N(CC(F)(F)F)S(=O)(=O)C(F)(F)F`, for which the melting point lay within 43 to 45 °C. Under `CCC1(O)CC(=O)OCc2c1cc1n(c2=O)Cc2c-1nc1cc(F)ccc1c2-c1ccccc1` (configuration not stated) stands over 250 °C; under `Clc1cccnc1-c1cc(OCCc2ccccn2)c2[nH]nc(Nc3cnccn3)c2c1`, 117 to 119 °C; under `OC1(c2ccccc2)C(c2ccccc2)SC2=NCCCCN21` (configuration not stated), 100 to 103 °C.

`O=C(O)[C@H](Cc1ccc(F)cc1)[C@@H](O)c1ccc(F)cc1` (racemic) came in with a melting point of 169 to 170 °C. Under `CCn1c2cc(C(F)(F)F)ccc2c2oc(C(=O)Cl)cc21` stands 124 to 126 °C; under `Fc1ccc(-c2c(-c3ccccc3)oc3ncnc(Cl)c23)cc1`, 124 to 127 °C; under `COc1ccc2c(c1)C(C(=O)N(Cc1ccc(N(C)C)cc1)c1ccc(C(C)C)cc1)CCO2` (configuration not stated), 82 to 84 °C. Under `OC(CCl)CNC(c1ccccc1)c1ccccc1` (configuration not stated) stands 66 to 68 °C; under `Cc1oc(-c2ccccc2)nc1CCC(=NO)c1ccc(CCCC2OC(=O)NC2=O)cc1` (configuration not stated), 185 to 186 °C. Take `CC(=O)Nc1cc(-n2c(=O)cc(C(F)(F)F)n(C)c2=O)c(F)cc1Cl`: the melting point was in the range of 257 to 258 °C. Under `COCCC(=O)N[C@H]1CC[C@H](CCN2CCC(c3ccc(F)c4occc34)CC2)CC1` stands 177 °C. Under `CC(=O)C(=NNc1ccccc1)C(=O)Nc1ccccc1` stands 96 to 97 °C. Under `O=C(Nc1nnc(SCc2ccccc2)s1)C1CC1` stands 182 to 184 °C; under `Cc1ccc(S(=O)(=O)n2ccc3c(-c4c(-c5ccc(F)cc5)nc5ccc(Cl)nn45)ccnc32)cc1`, 244 to 246 °C; under `CN(C)Cc1nnc2n1-c1ccc(C(F)(F)F)cc1C(c1ccccc1)=[N+]([O-])C2`, 188 to 190 °C. `O=C1c2ccccc2OS(=O)N1SC(Cl)(Cl)Cl` (configuration not stated): the melting point is 65 to 67 °C. As for `COc1ccc(COc2c(C)c(C)c3c(c2C)C(c2ccc(C(C)C)cc2)C(C)(C)O3)cc1` (configuration not stated), the figure is 95 to 96 °C. Under `Cc1cc(-c2cc(F)c(F)cc2-c2ccc(S(C)(=O)=O)cc2)ccc1F` stands 167 to 168 °C. Take `CCOC(=O)c1cn(-c2nc(N)c(F)cc2F)c2c(Cl)c(NCC(O)COC3CNC3)c(F)cc2c1=O` (configuration not stated): the melting point is 148 to 152 °C. As for `CC(=O)NCc1ccc2c(c1)N(C1CCN(CCc3ccc(F)cc3)CC1)CC2(C)C`, the figure is 131 to 133 °C; as for `CC(C)(c1ccccc1)c1cccc(S(=O)(=O)NC(CCCNC(=N)N)C(=O)O)c1` (configuration not stated), 122 to 124 °C.

Regarding `COc1cc(Oc2cccc(C(F)(F)F)c2)nc(C(=O)NN=C(C)c2ccccc2)c1`, the melting point was in the range of 181 to 182 °C. `CC(C)CC(=O)Nc1cccc(-c2ccnc3c(-c4ccc5c(c4)OCO5)cnn23)c1` had a melting point of 172 to 173 °C. As for `CC(=O)c1ccc2ccc3ccccc3c2n1`, the figure is 113 to 115 °C. `O=C(COc1ccccc1)NC1C(=O)N2C(C(=O)OCc3ccc([N+](=O)[O-])cc3)=C(O)CCC12` (configuration not stated) came in with a melting point of 160 to 162 °C.

In turn, `c1ccc2c(c1)ccn2Cc1ccncc1` came in with a melting point of 65 to 68 °C.

For the compound `CCC(C)Sc1cc(C(F)(F)F)ccc1C(=O)O` (configuration not stated), the melting point is 99.8 to 101 °C. Under `CCOC(=O)c1sc(=O)[nH]c1-c1cccc(C(F)(F)F)c1` stands 168 to 171 °C; under `COC(=O)c1cccc(F)c1O`, 94 to 95 °C; under `Cn1c(Br)nc2c([N+](=O)[O-])cc(Br)cc21`, 235 to 236 °C. As for `CC(C)[Si](Oc1ccc2c(c1)CN(Nc1ccccn1)C2)(C(C)C)C(C)C`, the figure is 95 to 96 °C; as for `CCCCCCCCCCCCCCCCN(CCO)CCCCCCN(CCO)CCCCCCCCCCCCCCCC`, 29 to 30 °C; as for `O=S(=O)(CCCl)C(c1ccccc1)S(=O)(=O)CCCl`, 106 to 108 °C. Under `Clc1nc(NCc2ccc(-c3ccccn3)cc2)c2[nH]cnc2n1` stands over 250 °C; under `CCOc1ccc(NC=C(C(=O)Nc2ccccc2)c2cc(C)no2)cc1`, 114 to 115 °C; under `CCOC(=O)/C=C(/c1ccc(OC)cc1)c1cc(C)cc(Cl)c1`, 83 to 85 °C. The compound `CON(C)C(=O)Nc1ccc(OCCc2ccc(C)cn2)cc1` registered a melting point of 110 to 112 °C. Under `COc1ccc(S(=O)(=O)n2c(=O)[nH]c3cc(Cl)ccc3c2=O)cc1OC` stands over 250 °C.

`CC1(C)OC(=O)Nc2c(F)cc(-c3cc(F)cc(C#N)c3)cc21` came in with a melting point of 256 to 257 °C. As for `N#Cc1cc(C=O)ccc1-n1cncn1`, the figure is 134 to 141 °C; as for `Cc1cc(S)n2nc(N)nc2n1`, over 300 °C. `CCCCCCCCCCCCCCOCc1ccc(C=C2C(=O)C3(C)CCC2C3(C)C)cc1` (configuration not stated) gave a melting point of 35 °C. Turning to `Cc1[nH]c(=O)c(C#N)c2c1CC(c1cccnc1)CC2` (configuration not stated), the melting point was over 300 °C. As for `CC1(C)CCC(C)(C)c2cc(-c3cc(-c4ccc(CO)cc4)ccc3-c3ccccc3)ccc21`, the figure is 134 to 136 °C; as for `COC(=O)c1ccccc1NC(=O)CNc1ccccc1Br`, 89 to 91 °C; as for `Fc1ccc(-c2cc(N3CCNCC3)nnc2C(F)(F)F)cc1`, 137 °C. As for `COC(=O)c1ccc(Cc2c(C(=O)OC)n(-c3ccccc3)c3nc(C)ccc3c2=O)cn1`, the figure is 177 to 178 °C; as for `CCN(c1nc(C)cc(C(=O)c2ccc(F)cc2)n1)c1ccc(C(C)C)cc1Br`, 70 °C. As for `Cc1cc(CC#N)c(CC#N)cc1C`, the figure is 103 to 104 °C.

The compound `CN1C(=O)CC[C@]2(C)c3ccc(-c4ccc5ccccc5n4)cc3CC[C@@H]12` yielded a melting point of 140 to 145 °C. `COCC1CN(c2ccc(C3CCC(OC(=O)c4ccccc4C4=NCCO4)CC3)cc2)C(=O)O1` (racemic) came in with a melting point of 182 to 184 °C. As for `O=C(Nc1ccc(-n2nc(-c3cccnc3)cc2C(F)F)cc1)c1ccncc1F`, the figure is 176 to 178 °C; as for `CCCCCS(=O)(=O)NC(=O)/C=C/c1ccc(OCCOC)cc1Nc1ccc(C(F)(F)F)cc1`, 142 to 143 °C; as for `N#Cc1c[nH]cc1-c1ccc(Cl)cc1C(=O)c1ccccc1`, 175 to 177 °C.

The compound `Cc1cc(O)c(CC(=O)OC(C)C)cc1O` had a melting point of 123 °C.

In turn, `Brc1n[nH]c2ccccc12` came in with a melting point of 136 °C. As for `CC(=NCCO)C1CCC2C3CCC4CC(O)C(N5CCOC(C)C5)CC4(C)C3CCC12C` (configuration not stated), the figure is 162 to 165 °C; as for `CS(=O)(=O)c1ccc(-c2c(-c3ccccc3)c(=O)c2=O)cc1`, 139 to 140 °C; as for `COc1nc(C2=NC(=O)C(C)(C(C)C)N2)c(C(=O)O)cc1C` (configuration not stated), 151 to 153 °C. As for `CC(C)c1nc(CO)[nH]c1Sc1cc(Cl)cc(Cl)c1`, the figure is 191 to 192 °C; as for `Nc1cc(F)c(F)c(Cl)c1Cl`, 94 to 97.5 °C; as for `COc1ccc(Cl)cc1NC(=O)Nc1ccc(N2CCN(C(=O)OC(C)(C)C)CC2)cc1`, 205 °C. As for `CCCCCCCCCCC1SCCCN1C(=S)Nc1cccc(Br)c1` (configuration not stated), the figure is 73 to 74 °C; as for `NC(=S)Nc1ccccc1-c1cccc(F)c1`, 157 to 159 °C; as for `CCOC(=O)C1=C(CF)NC(CF)=C(C(=O)OCC)C1c1cccc([N+](=O)[O-])c1`, 113 to 114 °C. Turning to `COC(=O)NC(CCc1ccc(Br)cc1)C(=O)O` (configuration not stated), the melting point lay in the range of 136 to 137 °C. Under `CN(C)CCCc1ccc2c(c1)CCCN2C(=O)c1ccc(-c2ccccc2)cc1` stands 100 to 101 °C. As for `Clc1ccccc1-c1nc(-c2ccccc2)c(-c2ccccc2)n1Br`, the figure is 103 to 105 °C; as for `CCCCCCCCOc1ccc(C(=O)NN)cc1`, 90 °C; as for `CCOC(=O)Cc1cn(C)c2cc(C3CC3)nn2c1=O`, 147 to 150 °C.

`COCc1nc2c(N)nc3ccccc3c2s1` returned a melting point of 183 to 185 °C.

Compound `CCC1c2[nH]c3ccccc3c2CC(C(=O)O)N1C(=S)SC` (configuration not stated) showed a melting point of 155 to 157 °C.

In turn, `Cc1cc(C#N)cc(C(=O)NC(C)C2CC2)c1NC(=O)c1cc(Br)nn1-c1ncccc1Cl` (configuration not stated) registered a melting point of 244 to 245 °C.

As to `CN(C)CC(=O)N1CC(=Cc2ccccc2)C2=NN(C)C(c3ccccc3)C2C1` (configuration not stated), the melting point lay in the range of 132 to 134 °C. Under `COC(=O)CCCc1cc2nc(Cl)ccc2n1S(=O)(=O)c1ccc(-c2ccccc2)cc1` stands 122 to 124 °C; under `CC1(C)CC(=O)C2=C(C1)NC1=C(C(=O)CC(C)(C)C1)C2c1cccc(Oc2ncccn2)c1`, 220 to 221 °C; under `COc1ccc(-c2nc3cc(Cl)c(Cl)cc3n2C(=O)OCc2ccccc2)cc1N`, 150 to 160 °C. Under `CCOC(=O)C1=C(C)NC(C)=C(C(=O)OCC)C1c1ccccc1/C=C/C(=O)OC1CCCCC1` stands 175 to 177 °C. Under `CCNC(=O)NCCCNn1c(COCC)nc2c(N)nc3ccccc3c21` stands 138 to 141 °C; under `O=C(Oc1cc(OC(=O)c2ccccc2)c(C(=O)C=Cc2ccc(O)cc2)c(OC(=O)c2ccccc2)c1)c1ccccc1`, 198 to 200 °C. `Cc1ccccc1-c1c(C2CCN(C)CC2)[nH]c(=O)c2ccccc12` came in with a melting point of 249 to 251 °C. As for `O=c1oc2cc(OCC3CO3)ccc2c2c1CCCC2` (configuration not stated), the figure is 120 to 121 °C; as for `COc1cc2c(Nc3cccc(Cl)c3F)ncnc2cc1O[C@H]1CCCN(C(=O)CN2CCN(C)CC2)C1`, 120 to 121 °C. Under `CC(CCOc1ccccc1NS(C)(=O)=O)N1CCC(OC(c2ccccc2)c2cccs2)CC1` (configuration not stated) stands 100 to 102 °C.
